Consider 15 compounds from publication PMC4491109, “Synthesis and anticonvulsant activity of new N-phenyl-2-(4-phenylpiperazin-1-yl)acetamide derivatives” (Medicinal Chemistry Research, 2015).

SMILES strings stand for the structures. Read-outs that look alike come from different tables or passages of the source.

Format in all cases: in vivo
In data set [1] the test system is maximal electroshock (MES) seizures. The experiment in a line: Maximal electroshock (MES) test, i.p. administration in mice. The note with it: Mus musculus, ip, doses of 30, 100 or 300 mg/kg. Here is the method: (§1) Considering the aforementioned facts, the profile of anticonvulsant activity of final compounds 3–24 was established in the MES and scPTZ tests, after intraperitoneal (i.p.) injection in mice at doses of 30, 100 and 300 mg/kg. An observation was carried out at two different time intervals—0.5 and 4 h. Furthermore, in addition to the primary anticonvulsant screening, the acute neurological toxicity (NT) was determined in mice by the rotarod test.
(§2) Compounds 3–24 were pharmacologically preevaluated within the Antiepileptic Drug Development (ADD) Program in Epilepsy Branch, Neurological Disorders Program, National Institute of the Neurological and Communicative Disorders and Stroke (NIH/NINDS), Rockville, MD, USA, by using procedures described elsewhere (Krall et al., [1978]; Kupferberg, [1989]).
(§3) Phase I of the in vivo studies involved three tests: MES, scPTZ and rotarod test for NT. Male albino mice (CF#1 strain, weighing 18–25 g) and male albino rats (Sprague–Dawley) were used as experimental animals. The animals were housed in metabolic cages and allowed free access to food and water. The compounds were injected intraperitoneally to mice as a suspension in 0.5 % methylcellulose/water mixture at a dose level 30, 100 or 300 mg/kg with anticonvulsant activity and neurotoxicity assessment at 0.5 and 4 h after administration. Promising derivatives from phase I underwent phase VIa in which they were administrated orally into rats at a fixed dose of 30 mg/kg for both MES and the rotarod toxicity determination at five pretreatment times: 0.25, 0.5, 1, 2, 4 h. Groups of eight mice or four rats are employed.
In the MES screen, an electrical stimulus of 0.2 s in duration (50 mA in mice and 150 mA in rats) is delivered via corneal electrodes primed with an electrolyte solution containing an anesthetic agent. The endpoint is the tonic extension of the hind limbs. In the control groups, the procedures cause immediate hind limb tonic extension. Mice not displaying hind limb tonic extension are considered to be protected from seizures.
Background: The maximal electroshock test induces tonic seizures with an electrical stimulus.

Data set [2] relates to pentylenetetrazole-induced seizures. The experiment in a line: Subcutaneous pentylenetetrazole (scPTZ) test, i.p. administration in mice. The conditions noted are these: Mus musculus, ip, doses of 30, 100 or 300 mg/kg. As to the method: as §1, §2, §3
The scPTZ test utilizes a dose of pentylenetetrazole (85 mg/kg in mice) that produces clonic seizures lasting for a period of at least 5 s in 97 % (CD97) of animals tested. PTZ is administered 0.5 and 4 h after injections of tested compounds, and observation is carried out for 30 min. In the control groups, the first episode of clonic convulsions is observed between 6 and 15 min of observation. The absence of clonic convulsions in the observed time period of […] is interpreted as the compound’s ability to protect against PTZ-induced seizures.

For the next data set, the system named is mice (rotarod test). Description: Neurotoxicity screening (NT), rotarod test, i.p. administration in mice. The note with it: male, CF#1, mouse, in vivo. Here is the method:
as §1, §3
The neurological toxicity test (NT) induced by a compound was detected in mice or rats using standardized rotarod test (Dunham and Miya, [1957]). Untreated control mice or rats, when placed on the rod, can maintained their equilibrium for a prolonged time period.
On the technique in general: In the rotarod test animals must keep their balance on a rotating rod.

The test system of data set [3] is 6-Hz psychomotor seizures. Description: Psychomotor seizure test (6-Hz), i.p. in mice. The note with it: 100 mg/kg. An excerpt: In the next step of pharmacological investigations, four compounds 12, 19, 20 and 24 were chosen for the evaluation of anticonvulsant activity in the psychomotor 6-Hz test (Table 4). The selection was made randomly as a part of the search of molecules providing anti-6-Hz protection among chemically diversified compounds pursued in the NIH/NINDS. It should be noticed that 6-Hz screen has been validated as a model of therapy-resistant epilepsy (Barton et al., [2001]).
The 6-Hz model is an alternative electroshock paradigm that uses low-frequency (6 Hz), long-duration (3 s) electrical stimulation. Corneal stimulation (0.2 ms duration monopolar rectangular pulses at 6-Hz for 3 s) was delivered by a constant-current device. During the stimulation, mice were manually restrained and released into the observation cage immediately after the current application. The seizures manifest in “stunned” posture associated with rearing, forelimb, automatic movements and clonus, twitching the vibrissae and Straub–tail. The duration of the seizure activity ranges from 60 to 120 s in untreated animals. At the end of the seizure, animals resume their normal exploratory behavior. The experimental end point is protection against the seizure. The animal is considered to be protected if it resumes its normal exploratory behavior within 10 s from the stimulation (Brown et al., [1953]).

The mark [4] stands for this setting: 0.5 h, read-out: MES, minimum dose effective in half or more animals tested, 0.5 h.
[5] abbreviates: 4 h, read-out: MES, minimum dose effective in half or more animals tested, 4 h.
Setting [6] is: 0.5 h, read-out: scPTZ, minimum dose effective in half or more animals tested, 0.5 h.
Where [7] appears, read: 4 h, read-out: scPTZ, minimum dose effective in half or more animals tested, 4 h.

`Cl.Cl.O=C(CN1CCN(Cc2ccccc2)CC1)Nc1cccc(Cl)c1` [Compound 11, 2-(4-Benzylpiperazin-1-yl)-N-(3-chlorophenyl)acetamide dihydrochloride]: the minimal effective dose in data set [1] (setting [4]), in data set [1] (setting [5]), in data set [2] (setting [6]) and in data set [2] (setting [7]) was above 300 mg/kg each time. Moreover, in the data set with mice (rotarod test), the “NT (rotarod), minimum dose neurotoxic in half or more animals tested, 0.5 h” value was determined as 300 mg/kg. The “dose showing neurotoxicity in the rotarod test (NT)” value in the data set with mice (rotarod test) (ip) is 300 mg/kg.
For `CN1CCN(CC(=O)Nc2cccc(Cl)c2)CC1.Cl.Cl` [Compound 12, N-(3-chlorophenyl)-2-(4-methylpiperazin-1-yl)acetamide dihydrochloride], the minimal effective dose in data set [1] (setting [4]) is 100 mg/kg; in data set [1] (setting [5]), above 300 mg/kg; in data set [2] (setting [6]), above 300 mg/kg; in data set [2] (setting [7]), above 300 mg/kg. Besides, the “6-Hz, % of animals protected, 0.25 h” value in data set [3] (0.25 h) came to 75%. The “6-Hz, % of animals protected, 0.5 h” value in data set [3] (0.5 h) amounted to 75%. In data set [3] (current 32 mA, 0.25 h), the “6-Hz, number of mice protected/number of mice tested, 0.25 h” value is reported as 3/4. Besides, in data set [3] (current 32 mA, 0.5 h), the “6-Hz, number of mice protected/number of mice tested, 0.5 h” value is reported as 3/4. Further, the “6-Hz, number of mice protected/number of mice tested, 1 h” value in data set [3] (current 32 mA, 1 h) is listed as 0/4. Further, the “6-Hz, number of mice protected/number of mice tested, 2 h” value in data set [3] (current 32 mA, 2 h) is reported as 0/4. Further, the “6-Hz, number of mice protected/number of mice tested, 4 h” value in data set [3] (current 32 mA, 4 h) is 0/4.
Turning to `Cl.O=C(CN1CCN(c2cccc(C(F)(F)F)c2)CC1)Nc1cccc(Cl)c1` [Compound 9, N-(3-chlorophenyl)-2-[4-[3-(trifluoromethyl)phenyl]piperazin-1-yl]acetamide monohydrochloride], the minimal effective dose in data set [1] (setting [4]), in data set [1] (setting [5]), in data set [2] (setting [6]) and in data set [2] (setting [7]) was above 300 mg/kg each time.
`Cl.O=C(CN1CCN(c2ccccc2Cl)CC1)Nc1cccc(C(F)(F)F)c1` [Compound 15, 2-[4-(2-Chlorophenyl)piperazin-1-yl]-N-[3-(trifluoromethyl)phenyl]acetamide monohydrochloride]: the minimal effective dose in data set [1] (setting [4]), in data set [1] (setting [5]), in data set [2] (setting [6]) and in data set [2] (setting [7]) was above 300 mg/kg throughout.
On to `O=C(CN1CCN(c2cccc(Cl)c2Cl)CC1)Nc1cccc(C(F)(F)F)c1` [Compound 17, 2-[4-(2,3-Dichlorophenyl)piperazin-1-yl]-N-[3-(trifluoromethyl)phenyl]acetamide], for which the minimal effective dose in data set [1] (setting [4]), in data set [1] (setting [5]), in data set [2] (setting [6]) and in data set [2] (setting [7]) was above 300 mg/kg throughout.
On to `Cl.O=C(CN1CCN(c2ncccn2)CC1)Nc1cccc(C(F)(F)F)c1` [Compound 21, 2-(4-Pyrimidin-2-ylpiperazin-1-yl)-N-[3-(trifluoromethyl)phenyl]acetamide monohydrochloride], for which the minimal effective dose in data set [1] (setting [4]), in data set [1] (setting [5]), in data set [2] (setting [6]) and in data set [2] (setting [7]) was above 300 mg/kg each time. The “NT (rotarod), minimum dose neurotoxic in half or more animals tested, 0.5 h” value in the data set on mice (rotarod test) was found to be 300 mg/kg.
Consider `Cl.O=C(CN1CCN(c2ccccc2F)CC1)Nc1cccc(C(F)(F)F)c1` [Compound 18, 2-[4-(2-Fluorophenyl)piperazin-1-yl]-N-[3-(trifluoromethyl)phenyl]acetamide monohydrochloride], for which the minimal effective dose in data set [1] (setting [4]) is above 300 mg/kg; in data set [1] (setting [5]) it was 100 mg/kg; in data set [2] (setting [6]) it was above 300 mg/kg; in data set [2] (setting [7]), above 300 mg/kg.
`Cl.O=C(CN1CCN(c2ccccc2)CC1)Nc1cccc(Cl)c1` [Compound 3, N-(3-chlorophenyl)-2-(4-phenylpiperazin-1-yl)acetamide monohydrochloride]: the minimal effective dose in data set [1] (setting [4]), in data set [1] (setting [5]), in data set [2] (setting [6]) and in data set [2] (setting [7]) was above 300 mg/kg each time.
In the case of `Cl.O=C(CN1CCN(c2ccccc2Cl)CC1)Nc1cccc(Cl)c1` [Compound 4, N-(3-chlorophenyl)-2-[4-(2-chlorophenyl)piperazin-1-yl]acetamide monohydrochloride], the minimal effective dose in data set [1] (setting [4]), in data set [1] (setting [5]), in data set [2] (setting [6]) and in data set [2] (setting [7]) was above 300 mg/kg throughout.
With `Cl.O=C(CN1CCN(c2cccc(Cl)c2Cl)CC1)Nc1cccc(Cl)c1` [Compound 6, N-(3-chlorophenyl)-2-[4-(2,3-dichlorophenyl)piperazin-1-yl]acetamide monohydrochloride], the minimal effective dose in data set [1] (setting [4]), in data set [1] (setting [5]), in data set [2] (setting [6]) and in data set [2] (setting [7]) was above 300 mg/kg throughout.
Take `O=C(CN1CCN(c2ccc(Cl)cc2)CC1)Nc1cccc(C(F)(F)F)c1` [Compound 16, 2-[4-(4-Chlorophenyl)piperazin-1-yl]-N-[3-(trifluoromethyl)phenyl]acetamide]: the minimal effective dose in data set [1] (setting [4]) is above 300 mg/kg; in data set [1] (setting [5]), 100 mg/kg; in data set [2] (setting [6]), above 300 mg/kg; in data set [2] (setting [7]) it was above 300 mg/kg.
`Cl.O=C(CN1CCN(c2ncccn2)CC1)Nc1cccc(Cl)c1` [Compound 10, N-(3-chlorophenyl)-2-(4-pyrimidin-2-ylpiperazin-1-yl)acetamide monohydrochloride]: the minimal effective dose in data set [1] (setting [4]), in data set [1] (setting [5]), in data set [2] (setting [6]) and in data set [2] (setting [7]) was above 300 mg/kg in each case.
Turning to `Cl.O=C(CN1CCN(c2ccc(Cl)cc2)CC1)Nc1cccc(Cl)c1` [Compound 5, N-(3-chlorophenyl)-2-[4-(4-chlorophenyl)piperazin-1-yl]acetamide monohydrochloride], the minimal effective dose in data set [1] (setting [4]), in data set [1] (setting [5]), in data set [2] (setting [6]) and in data set [2] (setting [7]) was above 300 mg/kg throughout.
Regarding `Cl.O=C(CN1CCN(c2ccc(F)cc2)CC1)Nc1cccc(Cl)c1` [Compound 8, N-(3-chlorophenyl)-2-[4-(4-fluorophenyl)piperazin-1-yl]acetamide monohydrochloride], the minimal effective dose in data set [1] (setting [4]), in data set [1] (setting [5]), in data set [2] (setting [6]) and in data set [2] (setting [7]) was above 300 mg/kg in each case.
Consider `Cl.O=C(CN1CCN(c2ccccc2F)CC1)Nc1cccc(Cl)c1` [Compound 7, N-(3-chlorophenyl)-2-[4-(2-fluorophenyl)piperazin-1-yl]acetamide monohydrochloride], for which the minimal effective dose in data set [1] (setting [4]), in data set [1] (setting [5]), in data set [2] (setting [6]) and in data set [2] (setting [7]) was above 300 mg/kg each time.
